Test results taken from US6602888B2, “Use of α1C specific compounds to treat benign prostatic hyperplasia” (Synaptic Pharmaceutical Corporation, priority 1992, dated 2003).
Like-named read-outs stand apart in the source and are kept apart here.

Columns and labels:
[1] = target: T1, human α2B adrenergic receptor (Homo sapiens, UniProt P18089); test: Competition binding, [3H]rauwolscine, α2B receptor; conditions: for Ki: read-out: Alpha-2 Adrenergic a2b (pK1) (converted)
T1 sequence (P18089 1-450): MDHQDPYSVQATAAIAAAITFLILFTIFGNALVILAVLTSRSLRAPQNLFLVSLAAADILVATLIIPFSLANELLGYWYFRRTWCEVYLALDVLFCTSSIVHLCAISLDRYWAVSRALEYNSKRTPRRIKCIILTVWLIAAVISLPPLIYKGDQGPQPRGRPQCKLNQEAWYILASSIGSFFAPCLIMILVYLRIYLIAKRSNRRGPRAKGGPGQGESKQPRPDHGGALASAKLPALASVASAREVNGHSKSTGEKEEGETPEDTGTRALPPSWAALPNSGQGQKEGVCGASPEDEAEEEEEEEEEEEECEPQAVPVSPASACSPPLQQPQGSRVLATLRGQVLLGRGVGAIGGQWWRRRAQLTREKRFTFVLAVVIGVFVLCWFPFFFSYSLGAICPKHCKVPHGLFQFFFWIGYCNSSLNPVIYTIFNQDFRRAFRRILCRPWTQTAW
Procedure: (§1) To determine the potency of α1 antagonists at the α2 receptors, LM(tk−) cell lines stably transfected with the genes encoding the α2A, α2B, and α2C receptors were used. The cell line expressing the α2A receptor is designated L-α2A, and was deposited on Nov. […] The cell line expressing the α2B receptor is designated L-NGC-α2B, and was deposited on Oct. […] The cell line expressing the α2C receptor is designated L-α2C, and was deposited on Nov. […] Cell lysates were prepared as described above (see Radioligand Binding Assays), and suspended in 25 mM glycylglycine buffer (pH 7.6 at room temperature).

[2] = target: T2, human α1C adrenergic receptor (Homo sapiens, UniProt P35348); test: Radioligand binding, [3H]prazosin, cloned human α1C adrenergic receptor
T2 construct: The entire coding region of α1C (1401 bp); expressed in transfected cells
T2 sequence (P35348 1-466): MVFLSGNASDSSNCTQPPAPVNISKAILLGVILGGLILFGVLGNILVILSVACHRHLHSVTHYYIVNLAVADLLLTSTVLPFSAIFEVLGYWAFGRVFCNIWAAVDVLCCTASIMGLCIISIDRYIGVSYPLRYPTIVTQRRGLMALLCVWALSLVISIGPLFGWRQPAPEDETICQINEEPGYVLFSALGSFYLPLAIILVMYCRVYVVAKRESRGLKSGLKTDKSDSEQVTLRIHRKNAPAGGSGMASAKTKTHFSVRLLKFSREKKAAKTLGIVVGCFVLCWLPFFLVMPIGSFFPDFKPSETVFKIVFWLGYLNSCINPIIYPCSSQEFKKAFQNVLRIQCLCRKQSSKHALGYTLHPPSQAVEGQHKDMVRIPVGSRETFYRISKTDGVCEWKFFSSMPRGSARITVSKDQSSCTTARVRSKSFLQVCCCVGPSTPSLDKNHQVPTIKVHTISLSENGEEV
Excerpt: The construct involved ligating three partial overlapping fragments: a 5′ 0.6 kb HincII genomic clone, a central 1.8 EcoRI hippocampal cDNA clone, and a 3′ 0.6 Kb PstI genomic clone. The hippocampal cDNA fragment overlaps with the 5′ and 3′ genomic clones so that the HincII and PstI sites at the 5′ and 3′ ends of the cDNA clone, respectively, were utilized for ligation. This full-length clone was cloned into the KpnI site of the expression vector, using the 5′ and 3′ KpnI sites of the fragment, derived from vector (i.e., pBluescript) and 3′-untranslated sequences, respectively. Stable cell lines were selected as described above.

human prostate tissue = test: Antagonism of phenylephrine-induced contraction of human prostatic tissue; conditions: pA2, phenylephrine-induced contraction, dose-ratio method
Procedure: An index of this efficacy can be obtained by determining the potency of α1 antagonists to antagonize the contraction of human prostatic tissue induced by an α1 agonist “in vitro”.
Prostatic adenomas were obtained at the time of surgery from patients with symptomatic BPH. […] Isometric tension was measured with a Grass Instrument FT03 force transducer interfaced with a computer. Tissue strips were contracted with varying concentrations of phenylephrine after incubating for 20 minutes in the absence and presence of at least three different concentrations of antagonist. Dose-response curves for phenylephrine were constructed, and the antagonist potency (pA2) was estimated by the dose-ratio method.

calcium channels = target: T3, calcium channels (Rattus norvegicus, UniProt P22002); test: [3H]nitrendipine competition binding, calcium channels, rat cardiac muscle membranes; conditions: for Ki: read-out: Calcium Channel (pK1) (converted)
T3 construct: from tissue; host or cells: rat cardiac muscle membranes
T3 sequence (P22002 whole entry, other chains not shown): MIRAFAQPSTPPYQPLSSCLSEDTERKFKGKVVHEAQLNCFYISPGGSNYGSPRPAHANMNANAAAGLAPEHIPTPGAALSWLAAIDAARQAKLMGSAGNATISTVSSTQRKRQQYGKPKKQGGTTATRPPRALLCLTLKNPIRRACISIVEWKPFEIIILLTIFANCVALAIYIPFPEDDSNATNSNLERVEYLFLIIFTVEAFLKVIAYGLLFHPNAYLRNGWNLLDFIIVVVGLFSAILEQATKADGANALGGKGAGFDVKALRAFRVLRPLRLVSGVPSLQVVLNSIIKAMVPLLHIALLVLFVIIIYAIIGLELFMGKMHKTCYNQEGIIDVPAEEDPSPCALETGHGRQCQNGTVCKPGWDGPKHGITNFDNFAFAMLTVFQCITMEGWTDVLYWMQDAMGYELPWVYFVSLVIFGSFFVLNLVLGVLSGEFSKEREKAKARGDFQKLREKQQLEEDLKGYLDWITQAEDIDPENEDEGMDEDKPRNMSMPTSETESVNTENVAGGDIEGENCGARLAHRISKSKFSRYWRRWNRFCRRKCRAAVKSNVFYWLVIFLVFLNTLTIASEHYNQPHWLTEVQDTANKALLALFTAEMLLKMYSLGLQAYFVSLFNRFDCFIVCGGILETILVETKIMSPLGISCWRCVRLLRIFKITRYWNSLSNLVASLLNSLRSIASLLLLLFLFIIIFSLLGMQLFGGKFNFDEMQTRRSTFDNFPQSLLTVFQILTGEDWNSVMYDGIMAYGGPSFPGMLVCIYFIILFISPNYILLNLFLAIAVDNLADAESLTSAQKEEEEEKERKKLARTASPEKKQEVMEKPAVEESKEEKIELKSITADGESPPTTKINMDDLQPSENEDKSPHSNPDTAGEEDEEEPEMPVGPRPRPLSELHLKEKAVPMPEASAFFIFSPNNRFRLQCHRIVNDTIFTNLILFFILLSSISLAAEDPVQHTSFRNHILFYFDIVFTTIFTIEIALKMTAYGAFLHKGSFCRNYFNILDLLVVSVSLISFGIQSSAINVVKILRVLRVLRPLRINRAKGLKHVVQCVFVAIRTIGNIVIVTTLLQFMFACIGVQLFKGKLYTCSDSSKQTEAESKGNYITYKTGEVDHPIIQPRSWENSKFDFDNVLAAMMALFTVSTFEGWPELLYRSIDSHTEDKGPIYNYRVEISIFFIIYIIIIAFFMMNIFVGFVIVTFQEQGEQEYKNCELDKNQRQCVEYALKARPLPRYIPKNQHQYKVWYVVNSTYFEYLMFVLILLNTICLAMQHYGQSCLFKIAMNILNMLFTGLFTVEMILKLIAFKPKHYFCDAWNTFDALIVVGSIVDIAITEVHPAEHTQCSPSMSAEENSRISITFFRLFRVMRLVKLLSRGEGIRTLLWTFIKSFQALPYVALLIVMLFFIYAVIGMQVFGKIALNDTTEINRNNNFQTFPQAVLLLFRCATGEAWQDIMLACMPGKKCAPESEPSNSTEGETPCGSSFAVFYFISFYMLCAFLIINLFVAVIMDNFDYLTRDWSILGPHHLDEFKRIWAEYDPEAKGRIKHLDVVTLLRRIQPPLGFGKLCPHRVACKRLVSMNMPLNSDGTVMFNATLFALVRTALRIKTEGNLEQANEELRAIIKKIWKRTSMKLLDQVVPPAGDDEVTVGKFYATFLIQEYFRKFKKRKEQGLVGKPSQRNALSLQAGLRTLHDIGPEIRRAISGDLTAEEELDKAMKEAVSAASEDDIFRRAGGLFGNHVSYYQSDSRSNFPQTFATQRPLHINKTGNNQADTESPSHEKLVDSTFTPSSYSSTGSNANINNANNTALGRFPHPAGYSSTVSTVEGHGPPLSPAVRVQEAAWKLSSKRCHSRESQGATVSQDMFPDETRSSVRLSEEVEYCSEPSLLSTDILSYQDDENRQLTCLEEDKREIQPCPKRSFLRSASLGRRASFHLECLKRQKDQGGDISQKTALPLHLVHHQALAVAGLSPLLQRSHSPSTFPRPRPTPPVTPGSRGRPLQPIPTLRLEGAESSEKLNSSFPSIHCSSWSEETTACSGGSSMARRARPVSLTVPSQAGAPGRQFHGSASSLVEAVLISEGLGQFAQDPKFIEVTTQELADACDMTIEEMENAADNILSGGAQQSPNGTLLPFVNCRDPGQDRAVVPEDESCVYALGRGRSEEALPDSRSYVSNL
T3 sequence (P54290 25-944 partner limits assumed, other chains not shown): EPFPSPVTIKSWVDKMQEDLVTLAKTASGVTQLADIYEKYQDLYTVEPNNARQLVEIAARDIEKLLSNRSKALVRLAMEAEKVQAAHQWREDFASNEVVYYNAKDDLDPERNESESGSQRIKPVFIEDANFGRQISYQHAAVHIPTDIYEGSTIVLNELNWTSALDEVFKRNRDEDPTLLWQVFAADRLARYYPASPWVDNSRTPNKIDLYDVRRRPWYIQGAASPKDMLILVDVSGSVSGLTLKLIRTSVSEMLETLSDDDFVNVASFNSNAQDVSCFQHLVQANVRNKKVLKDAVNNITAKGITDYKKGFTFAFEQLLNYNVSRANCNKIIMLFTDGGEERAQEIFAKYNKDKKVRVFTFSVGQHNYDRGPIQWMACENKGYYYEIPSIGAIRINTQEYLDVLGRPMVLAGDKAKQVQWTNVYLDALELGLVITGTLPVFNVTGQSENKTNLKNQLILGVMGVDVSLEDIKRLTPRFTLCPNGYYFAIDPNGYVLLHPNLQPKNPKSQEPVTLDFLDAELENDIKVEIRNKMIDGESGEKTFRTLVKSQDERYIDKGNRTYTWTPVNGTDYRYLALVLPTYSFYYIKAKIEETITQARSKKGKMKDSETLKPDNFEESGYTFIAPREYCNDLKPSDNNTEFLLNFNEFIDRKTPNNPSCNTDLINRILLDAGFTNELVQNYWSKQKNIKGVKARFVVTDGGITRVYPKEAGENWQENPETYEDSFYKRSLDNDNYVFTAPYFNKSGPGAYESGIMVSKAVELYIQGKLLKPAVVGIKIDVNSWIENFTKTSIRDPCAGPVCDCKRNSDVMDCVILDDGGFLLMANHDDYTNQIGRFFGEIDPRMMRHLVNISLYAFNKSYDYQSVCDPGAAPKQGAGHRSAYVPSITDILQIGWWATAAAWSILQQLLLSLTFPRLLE
T3 sequence (P54290 945-1091 partner limits assumed, other chains not shown): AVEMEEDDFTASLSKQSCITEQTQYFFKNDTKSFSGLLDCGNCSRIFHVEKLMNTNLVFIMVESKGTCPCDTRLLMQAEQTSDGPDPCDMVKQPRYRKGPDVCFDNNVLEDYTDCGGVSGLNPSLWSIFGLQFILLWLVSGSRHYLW
Procedure: Briefly, the tissue was minced and homogenized in 50 mM Tris-HCl (pH 7.4) containing 0.1 mM phenylmethylsulfonyl fluoride. The homogenates were centrifuged at 1000 g for 15 minutes, the resulting supernatant was centrifuged at 45,000 g for 15 minutes. The 45,000 g pellet was suspended in buffer and centrifuged a second time.

[3] = target: T4, human α2C adrenergic receptor (Homo sapiens, UniProt P18825); test: Competition binding, [3H]rauwolscine, α2C receptor; conditions: for Ki: read-out: Alpha-2 Adrenergic a2c (pK1) (converted)
T4 sequence (P18825 1-462): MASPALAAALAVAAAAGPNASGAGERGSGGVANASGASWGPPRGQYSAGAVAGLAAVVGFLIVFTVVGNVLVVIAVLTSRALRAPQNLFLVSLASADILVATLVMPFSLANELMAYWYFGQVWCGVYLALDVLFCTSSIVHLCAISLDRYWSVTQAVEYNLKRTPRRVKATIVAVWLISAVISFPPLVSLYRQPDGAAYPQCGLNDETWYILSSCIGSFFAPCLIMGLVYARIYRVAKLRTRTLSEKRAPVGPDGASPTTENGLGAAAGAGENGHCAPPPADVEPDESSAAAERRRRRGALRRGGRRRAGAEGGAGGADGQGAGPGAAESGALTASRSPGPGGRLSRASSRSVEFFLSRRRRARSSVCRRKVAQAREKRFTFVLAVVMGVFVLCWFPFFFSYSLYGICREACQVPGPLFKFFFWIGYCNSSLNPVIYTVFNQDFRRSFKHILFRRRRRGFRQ
Procedure: as §1

human 5HT2 receptor = target: T5, human 5HT2 receptor (Homo sapiens, UniProt P28223); test: [3H]ketanserin competition binding, 5HT2 receptor; conditions: for Ki: read-out: Serotonin 5HT2 (pK1)
T5 construct: host or cells: COS-7 (DEAE-dextran); the same paragraph also names a deposited line L-NGC-5HT2
T5 sequence (P28223 whole entry): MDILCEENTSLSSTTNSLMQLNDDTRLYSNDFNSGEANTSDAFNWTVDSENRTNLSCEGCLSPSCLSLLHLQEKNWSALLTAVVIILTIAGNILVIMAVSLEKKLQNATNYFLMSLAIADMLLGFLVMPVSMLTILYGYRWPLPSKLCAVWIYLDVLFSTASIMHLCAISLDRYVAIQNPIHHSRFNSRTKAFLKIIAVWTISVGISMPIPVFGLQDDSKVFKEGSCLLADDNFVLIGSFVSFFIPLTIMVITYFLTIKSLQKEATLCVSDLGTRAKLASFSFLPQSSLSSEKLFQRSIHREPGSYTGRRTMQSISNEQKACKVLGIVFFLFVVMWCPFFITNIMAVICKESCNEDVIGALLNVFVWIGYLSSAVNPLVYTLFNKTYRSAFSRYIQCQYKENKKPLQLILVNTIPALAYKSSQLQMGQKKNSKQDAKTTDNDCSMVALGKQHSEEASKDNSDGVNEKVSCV
Procedure: The coding sequence of the human 5HT2 receptor was obtained from a human brain cortex cDNA library, and cloned into the cloning site of pCEXV-3 eukaryotic expression vector. This construct was transfected into COS-7 cells by the DEAE-dextran method. […] Nonspecific binding was defined by the addition of 10 μM mianserin.

[4] = target: T6, human α2A adrenergic receptor (Homo sapiens, UniProt P08913); test: Competition binding, [3H]rauwolscine, α2A receptor
T6 sequence (P08913 1-465): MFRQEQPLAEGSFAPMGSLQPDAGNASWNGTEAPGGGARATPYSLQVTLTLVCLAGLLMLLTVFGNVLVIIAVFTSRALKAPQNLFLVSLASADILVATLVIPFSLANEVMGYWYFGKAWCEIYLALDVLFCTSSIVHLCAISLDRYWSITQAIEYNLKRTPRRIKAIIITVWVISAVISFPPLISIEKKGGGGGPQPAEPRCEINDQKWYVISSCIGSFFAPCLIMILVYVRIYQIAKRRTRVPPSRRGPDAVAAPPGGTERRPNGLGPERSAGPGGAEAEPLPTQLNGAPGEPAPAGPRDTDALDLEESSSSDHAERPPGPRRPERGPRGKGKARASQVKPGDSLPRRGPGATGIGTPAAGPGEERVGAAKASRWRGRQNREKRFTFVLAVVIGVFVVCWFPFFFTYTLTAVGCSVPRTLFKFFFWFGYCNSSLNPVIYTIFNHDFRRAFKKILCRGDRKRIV
Procedure: as §1

[5] = Table 2, rat cardiac muscle membranes
[6] = Table 2, cloned human receptor, read-out: Alpha-2 Adrenergic a2a (pK1) (converted)

COC(=O)C1=C(C)NC(C)=C(C(=O)OCCCN2CCC(c3ccccc3)(c3ccccc3)CC2)C1c1ccc([N+](=O)[O-])cc1.Cl (stereo not drawn) [Compound 8, 2,6-Dimethyl-4-(4-nitrophenyl)-1,4-dihydropyridine-3,5-dicarboxylic acid [3-(4,4-diphenylpiperidin-1-yl)propyl] ester methyl ester hydrochloride]
Alpha-2 Adrenergic a2b (pK1) ([1]; Table 2, cloned human receptor): 6.12
Alpha-1 Adrenergic a1C (pK1) [2]: 8.48
Human Alpha-1 Adrenergic (pK1) a1C [2]: 8.48
Human Prostate (pA) (human prostate tissue): 7.46
Calcium Channel (pK1) (calcium channels; [5]): 6.87
Alpha-2 Adrenergic a2c (pK1) ([3]; Table 2, cloned human receptor): 5.77
Ki (human 5HT2 receptor; Table 2, cloned human receptor): > 100 nM
Alpha-2 Adrenergic a2a (pK1) ([4]; Table 2, cloned human receptor): 5.99

C=Cc1sc2ccc(Cl)c3c2c1CN(C)CC3 [SKF-104856, 7-Chloro-2-ethenyl-3,4,5,6-tetrahydro-4-methylthieno[4,3,2-ef][3]benzazepine, reference compound]
Ki ([1]; Table 2, cloned human receptor): 3.24 nM
Human Alpha-1 Adrenergic (pK1) a1C ([2]; Table 1, cloned human receptor): 7.60
Alpha-1 Adrenergic a1C (pK1) ([2]; Table 2, cloned human receptor): 7.60
Human Prostate (pA) (human prostate tissue): 7.66
Ki (calcium channels; [5]): 20900 nM
Ki ([3]; Table 2, cloned human receptor): 25.1 nM
Ki (human 5HT2 receptor; Table 2, cloned human receptor): > 1000 nM
Ki [4]: 50.1 nM

O=C(NC1CCN(CCc2c[nH]c3ccccc23)CC1)c1ccccc1 [Indoramin, reference compound]
Ki ([1]; Table 2, cloned human receptor): 1910 nM
selectivity for the human α1C receptor relative to the other human α-adrenergic receptors ([2]; cloned human receptors): slightly selective
Human Prostate (pA) (human prostate tissue): 7.86
Ki (calcium channels; [5]): 29500 nM
Ki ([3]; Table 2, cloned human receptor): 6030 nM
Ki (human 5HT2 receptor; Table 2, cloned human receptor): > 100 nM
Ki [4, 6]: 11500 nM

O=C(CCCN1CCC(NC(=O)c2ccccc2)CC1)c1ccc(Cl)cc1 [Compound 7]
Alpha-2 Adrenergic a2b (pK1) ([1]; Table 2, cloned human receptor): 6.07
Human Alpha-1 Adrenergic (pK1) a1C ([2]; Table 1, cloned human receptor): 8.42
Alpha-1 Adrenergic a1C (pK1) ([2]; Table 2, cloned human receptor): 8.42
Human Prostate (pA) (human prostate tissue): 7.63
Calcium Channel (pK1) (calcium channels; [5]): 4.79
Alpha-2 Adrenergic a2c (pK1) ([3]; Table 2, cloned human receptor): 6.09
Serotonin 5HT2 (pK1) (human 5HT2 receptor; Table 2, cloned human receptor): <6.0

COc1ccccc1N1CCN(CCCNc2c(C)c(=O)n(C)c(=O)n2C)CC1 [5-Methyl-Urapidil, 5-methylurapidil, reference compound]
Alpha-2 Adrenergic a2b (pK1) ([1]; Table 2, cloned human receptor): 7.38
Human Alpha-1 Adrenergic (pK1) a1C ([2]; Table 1, cloned human receptor): 8.35
Alpha-1 Adrenergic a1C (pK1) ([2]; Table 2, cloned human receptor): 8.35
Human Prostate (pA) (human prostate tissue): 8.38
Alpha-2 Adrenergic a2c (pK1) ([3]; Table 2, cloned human receptor): 6.88
Serotonin 5HT2 (pK1) (human 5HT2 receptor; Table 2, cloned human receptor): <6.0
Alpha-2 Adrenergic a2a (pK1) ([4]; Table 2, cloned human receptor): 6.63

4-fluoro-4-(8-fluoro-1,3,4,5-tetrahydro-2H-pyrido[4,3-b]indol-2-yl)butyrophenone hydrochloride [Compound A-30360, reference compound]
Alpha-2 Adrenergic a2b (pK1) [1]: 6.37
Alpha-1 Adrenergic a1C (pK1) [2]: 8.52
Human Alpha-1 Adrenergic (pK1) a1C [2]: 8.52
Human Prostate (pA) (human prostate tissue): 8.72
Calcium Channel (pK1) (calcium channels): 5.26
Alpha-2 Adrenergic a2c (pK1) [3]: 6.23
Serotonin 5HT2 (pK1) (human 5HT2 receptor): <8.0
Alpha-2 Adrenergic a2a (pK1) [4]: 6.69

O=C(CCCN1CCC(NC(=O)c2ccccc2)CC1)c1ccccc1 [Compound 9]
Alpha-2 Adrenergic a2b (pK1) ([1]; Table 2, cloned human receptor): 5.69
Human Alpha-1 Adrenergic (pK1) a1C ([2]; Table 1, cloned human receptor): 7.83
Alpha-1 Adrenergic a1C (pK1) ([2]; Table 2, cloned human receptor): 7.83
Human Prostate (pA) (human prostate tissue): 7.41
Calcium Channel (pK1) (calcium channels; [5]): 4.44
Alpha-2 Adrenergic a2c (pK1) ([3]; Table 2, cloned human receptor): 5.90
Serotonin 5HT2 (pK1) (human 5HT2 receptor; Table 2, cloned human receptor): <7.0
Alpha-2 Adrenergic a2a (pK1) ([4]; Table 2, cloned human receptor): 5.80

COc1ccc(CCNCC2CCc3ccccc3C2)cc1 (stereo not drawn) [Compound 11, 2-[(4-Methoxyphenethyl)aminomethyl]-1,2,3,4-tetrahydronaphthalene]
Ki ([1]; Table 2, cloned human receptor): 126 nM
Ki ([2]; Table 1, cloned human receptor, read-out: Human Alpha-1 Adrenergic (pK1) a1C (converted)): 4.37 nM
Alpha-1 Adrenergic a1C (pK1) ([2]; Table 2, cloned human receptor): 8.36
binding affinity at α1C receptors relative to binding affinities at other receptors ([2]; versus the other receptors of Table 2): greater than ten-fold higher
Human Prostate (pA) (human prostate tissue): 6.64
Human Prostate (pA) (human prostate tissue; listed as SNAP 5036): low
Ki (calcium channels; [5]): 6610 nM
Ki ([3]; Table 2, cloned human receptor): 120 nM
Ki (human 5HT2 receptor; Table 2, cloned human receptor): > 100 nM
Ki [4, 6]: 138 nM
